Non-standard residues stand in square brackets, D forms with d. No end group written: not given here. Hyp = O=C(O)[C@@H]1C[C@@H](O)CN1
Test system: three-dimensional human skin model (type I collagen production)
Assay: Type I collagen production in three-dimensional human skin model (TESTSKIN LSE-high), Western blotting with imaging analysis
Format: cell-based
Method: Three-dimensional human skin models are widely used in safety evaluation and effectiveness evaluation as a simulated model of human skin. In this test, TESTSKIN (LSE-high) (Toyobo Co., Ltd.) was used as a three-dimensional human skin model.
A culture medium was added to the outer well of TESTSKIN (LSE-high) and cultured for 24 hours. Thereafter, the culture solution was changed and each agent was added by 100 μl onto the tissues in the assay ring, after which the medium was cultured for 36 hours. Thereafter, the tissues were collected and a tissue extraction solution (50 mM Tris-HCl (pH 7.5), 0.5% (Octylphenoxy) polyethoxyethanol (Sigma-Aldrich Corp.)) was added, and then the mixture was homogenized using a homogenizer made of fluorocarbon resin. The homogenized mixture was centrifuged for 30 minutes at 10,000×G to remove tissue fragments, and then dialyzed overnight in distilled water at 4° C. Thereafter, the dialyzed mixture was freeze-dried to remove water. A tissue extraction solution was added to obtain a x20 concentrate, and this concentrate was used in Western blotting as a three-dimensional skin model extract sample.
Using a three-dimensional human skin model extract sample, 10 μg of protein was applied per lane, after which the sample was separated via SDS-PAGE and the result was transferred onto nitrocellulose membranes. The transferred nitrocellulose membranes were soaked in a blocking solution (solution prepared by dissolving skim milk in a PBS containing 0.1% polyoxyethylene (20) sorbitan monolaurate to achieve a concentration of 5%) and blocked for one whole day at 4° C. The blocked membranes were washed with a washing solution (PBS containing 0.1% polyoxyethylene (20) sorbitan monolaurate) and then soaked in a primary antibody (polyclonal antibody of type I collagen (Rockland Inc.) adjusted to 500 ng/ml using a washing solution) to cause reaction for 1 hour at room temperature. The reacted membranes were washed and then soaked in a secondary antibody (horseradish peroxidase labeled anti-rabbit immunoglobulin G adjusted to 250 ng/ml using a washing solution) to cause reaction for 1 hour at room temperature. The reacted membranes were washed and then detection was performed using an ECL plus Western blotting detection reagent (Amersham Biosciences Inc.). The detected band was also scanned into an image scanner (Amersham Biosciences Inc.) and analyzed using image master software (Amersham Biosciences Inc.) for conversion to numerical values.

[1] = 10 μM alone, Example 3, FIGS. 9 and 10
[2] = 10 μM, Example 3, FIGS. 7 and 8
[3] = 30 μM, Example 3, FIGS. 7 and 8
[4] = 10 μM, 36 h treatment, Example 1, FIGS. 1 and 2

| Compound | type I collagen production compared to the level in the untreated control [1] [times] | type I collagen production compared to the level in the untreated control [2] [times] | type I collagen production compared to the level in the untreated control [3] [times] | type I collagen production compared to the level in the untreated control [4] [times] | also measured |
| --- | --- | --- | --- | --- | --- |
| Lys-Thr-Thr-Lys-Ser (KTTKS) [pentapeptide derived from an α1 collagen decomposition product, synthesized] | 1.80 | 1.80 | 2.45 | – | – |
| COc1cc([C@@H]2Oc3c(O)cc([C@H]4Oc5cc(O)cc(O)c5C(=O)[C@@H]4O)cc3[C@H]2CO)ccc1O [silychristin] | – | – | – | 0.95 | – |
| COc1cc(C2Oc3cc([C@H]4Oc5cc(O)cc(O)c5C(=O)[C@@H]4O)ccc3OC2CO)ccc1O (stereo partly drawn) [silybin] | – | – | – | 3.2 | type I collagen production compared to the level in the untreated control (5 μM alone, Example 3, FIGS. 9 and 10): 1.95 times; type I collagen production compared to the level in the untreated control (5 μM used alone, Example 2, FIGS. 5 and 6): 1.85 times |
| Gly-His-Lys | 1.75 | 1.75 | 2.70 | – | – |
| Gly-Pro-[Hyp] | – | – | – | – | type I collagen production compared to the level in the untreated control (5 μM, Example 2, FIGS. 3 and 4): 1.05 times; type I collagen production compared to the level in the untreated control (10 μM, Example 2, FIGS. 3 and 4): 1.15 times; type I collagen production compared to the level in the untreated control (30 μM used alone, Example 2, FIGS. 5 and 6): 1.25 times; type I collagen production compared to the level in the untreated control (30 μM, Example 2, FIGS. 3 and 4): 1.25 times |
| COc1cc([C@@H]2[C@H]3CO[C@@]4(O)C(=O)[C@@H]2C=C([C@H]2Oc5cc(O)cc(O)c5C(=O)[C@@H]2O)[C@@H]34)ccc1O [silydianin] | – | – | – | 0.9 | – |
| Gly-Glu-Pro-Arg (GEPR) [peptide derived from an immunoglobulin G decomposition product, synthesized] | 2.10 | 2.15 | 3.55 | – | – |
